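Each compound was tested at five concentrations against cells in 96-well plates for 48 hours. GI50 marks 50% less growth.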 Activity calls are given as the source filed them. Rule as the data show it: active = GI50 up to about 1.1 µM and inactive = higher.
What was measured:
Assay in all cases: DTP human tumour cell line panel, 48 h
786-0 = system: 786-0
UO-31 = system: UO-31
T47D = system: T47D
Hs-578T = system: Hs-578T
SK-MEL-5 = system: SK-MEL-5
MCF7 = system: MCF7
NCI-H522 = system: NCI-H522
OVCAR-3 = system: OVCAR-3
MOLT-4 = system: MOLT-4
KM12 = system: KM12
TK-10 = system: TK-10
SNB-75 = system: SNB-75
OVCAR-4 = system: OVCAR-4
SW-620 = system: SW-620
NCI-H460 = system: NCI-H460
SN12C = system: SN12C
RPMI-8226 = system: RPMI-8226
HCC 2998 = system: HCC 2998
NCI-H23 = system: NCI-H23
MDA-MB-435 = system: MDA-MB-435

Compound | GI50 (786-0) | GI50 (UO-31) | GI50 (T47D) | GI50 (Hs-578T) | GI50 (SK-MEL-5) | GI50 (MCF7) | GI50 (NCI-H522) | GI50 (OVCAR-3) | GI50 (MOLT-4) | GI50 (KM12) | GI50 (TK-10) | GI50 (SNB-75) | GI50 (OVCAR-4) | GI50 (SW-620) | GI50 (NCI-H460) | GI50 (SN12C) | GI50 (RPMI-8226) | GI50 (HCC 2998) | GI50 (NCI-H23) | GI50 (MDA-MB-435)
N=C(N)NCCCC(NCc1c2ccccc2nc2ccccc12)C(=O)O (stereo not given) | 31.3 µM (inactive) | 23.6 µM (inactive) | 36.2 µM (inactive) | 69.7 µM (inactive) | > 41.8 µM (inactive) | 32 µM (inactive) | 22.9 µM (inactive) | 40.9 µM (inactive) | 8 µM (inactive) | 21.6 µM (inactive) | 49.5 µM (inactive) | 45.2 µM (inactive) | 29.2 µM (inactive) | 25.5 µM (inactive) | 36.1 µM (inactive) | 39.2 µM (inactive) | 10.4 µM (inactive) | 33.5 µM (inactive) | 53.1 µM (inactive) | 41.8 µM (inactive)
OC(COc1cccc2ccccc12)CN1CCOCC1 (stereo not given) | > 100 µM (inactive) | > 100 µM (inactive) | > 100 µM (inactive) | 75.5 µM (inactive) | > 100 µM (inactive) | > 100 µM (inactive) | 54 µM (inactive) | > 100 µM (inactive) | 44.6 µM (inactive) | > 100 µM (inactive) | > 100 µM (inactive) | > 100 µM (inactive) | > 100 µM (inactive) | > 100 µM (inactive) | > 100 µM (inactive) | > 100 µM (inactive) | > 100 µM (inactive) | > 100 µM (inactive) | > 100 µM (inactive) | > 100 µM (inactive)
O=C(O)c1cc2c(s1)C(=O)c1sccc1C2=O | 8.34 µM (inactive) | 5.98 µM (inactive) | 4.97 µM (inactive) | 2.49 µM (inactive) | 1.82 µM (inactive) | 2.8 µM (inactive) | 3.54 µM (inactive) | 4.81 µM (inactive) | 8.71 µM (inactive) | 8.07 µM (inactive) | 20.1 µM (inactive) | 1.82 µM (inactive) | 6.7 µM (inactive) | 2.31 µM (inactive) | 17.3 µM (inactive) | 2.73 µM (inactive) | 12.7 µM (inactive) | 18.7 µM (inactive) | 2.2 µM (inactive) | 0.774 µM (active)
CSCCC(NCc1c(O)ccc2ccc(=O)oc12)C(=O)O (stereo not given) | > 100 µM (inactive) | > 100 µM (inactive) | > 100 µM (inactive) | 4.78 µM (inactive) | 61.5 µM (inactive) | > 100 µM (inactive) | > 100 µM (inactive) | > 100 µM (inactive) | > 100 µM (inactive) | > 100 µM (inactive) | > 100 µM (inactive) | 16.9 µM (inactive) | > 100 µM (inactive) | > 100 µM (inactive) | > 100 µM (inactive) | > 100 µM (inactive) | > 100 µM (inactive) | > 100 µM (inactive) | > 100 µM (inactive) | 70.8 µM (inactive)

— ChEMBL document CHEMBL1201862, “PubChem BioAssay data set” (2004)
